Results: publication PMC6099740, “Design, Synthesis and Biological Evaluation of 6,7-Disubstituted-4-phenoxyquinoline Derivatives Bearing Pyridazinone Moiety as c-Met Inhibitors” (Molecules : A Journal of Synthetic Chemistry and Natural …, 2018)

Experiments:
A549 cells = experiment: MTT cytotoxicity assay, A549; type: cell-based; settings: Homo sapiens, 72 h
Procedure: (§1) The results expressed as IC50 values were summarized in Table 1, and the values were the average of at least two independent experiments.
(§2) The cancer cell lines were cultured in minimum essential medium (MEM) supplement with 10% fetal bovine serum (FBS). […] The test compounds at indicated final concentrations were added to the culture medium and the cell cultures were continued for 72 h. […] All of the compounds were tested two times in each of the cell lines. The results expressed as inhibition rates or IC50 (half-maximal inhibitory concentration) were the averages of two determinations and calculated by using the Bacus Laboratories Incorporated Slide Scanner (Bliss) software (the Bacus Laboratories Inc. Slide Scanner (BLISS) system, Lombard, IL, USA)..

HepG2 cells = experiment: MTT cytotoxicity assay, HepG2; type: cell-based; settings: Homo sapiens, 72 h
Procedure: as §1
The cancer cell lines were cultured in minimum essential medium (MEM) supplement with 10% fetal bovine serum (FBS). Approximately 4 × 10^3 cells, suspended in MEM medium, were plated onto each well of a 96-well plate and incubated in 5% CO2 at 37 °C for 24 h. The test compounds at indicated final concentrations were added to the culture medium and the cell cultures were continued for 72 h. Fresh MTT was added to each well at a terminal concentration of 5 μg/mL and incubated with cells at 37 °C for 4 h. The formazan crystals were dissolved in 100 μL DMSO each well, and the absorbency at 492 nm (for absorbance of MTT formazan) and 630 nm (for the reference wavelength) was measured with the ELISA reader. All of the compounds were tested two times in each of the cell lines. The results expressed as inhibition rates or IC50 (half-maximal inhibitory concentration) were the averages of two determinations and calculated by using the Bacus Laboratories Incorporated Slide Scanner (Bliss) software (the Bacus Laboratories Inc. Slide Scanner (BLISS) system, Lombard, IL, USA)..

MCF-7 cells = experiment: MTT cytotoxicity assay, MCF-7; type: cell-based; settings: Homo sapiens, MCF7, 72 h
Procedure: as §1, §2

c-Met kinase = c-Met kinase (Homo sapiens, UniProt P08581); experiment: c-Met kinase inhibition assay (HTRF; mobility shift)
Chain of c-Met kinase (P08581 25-1390): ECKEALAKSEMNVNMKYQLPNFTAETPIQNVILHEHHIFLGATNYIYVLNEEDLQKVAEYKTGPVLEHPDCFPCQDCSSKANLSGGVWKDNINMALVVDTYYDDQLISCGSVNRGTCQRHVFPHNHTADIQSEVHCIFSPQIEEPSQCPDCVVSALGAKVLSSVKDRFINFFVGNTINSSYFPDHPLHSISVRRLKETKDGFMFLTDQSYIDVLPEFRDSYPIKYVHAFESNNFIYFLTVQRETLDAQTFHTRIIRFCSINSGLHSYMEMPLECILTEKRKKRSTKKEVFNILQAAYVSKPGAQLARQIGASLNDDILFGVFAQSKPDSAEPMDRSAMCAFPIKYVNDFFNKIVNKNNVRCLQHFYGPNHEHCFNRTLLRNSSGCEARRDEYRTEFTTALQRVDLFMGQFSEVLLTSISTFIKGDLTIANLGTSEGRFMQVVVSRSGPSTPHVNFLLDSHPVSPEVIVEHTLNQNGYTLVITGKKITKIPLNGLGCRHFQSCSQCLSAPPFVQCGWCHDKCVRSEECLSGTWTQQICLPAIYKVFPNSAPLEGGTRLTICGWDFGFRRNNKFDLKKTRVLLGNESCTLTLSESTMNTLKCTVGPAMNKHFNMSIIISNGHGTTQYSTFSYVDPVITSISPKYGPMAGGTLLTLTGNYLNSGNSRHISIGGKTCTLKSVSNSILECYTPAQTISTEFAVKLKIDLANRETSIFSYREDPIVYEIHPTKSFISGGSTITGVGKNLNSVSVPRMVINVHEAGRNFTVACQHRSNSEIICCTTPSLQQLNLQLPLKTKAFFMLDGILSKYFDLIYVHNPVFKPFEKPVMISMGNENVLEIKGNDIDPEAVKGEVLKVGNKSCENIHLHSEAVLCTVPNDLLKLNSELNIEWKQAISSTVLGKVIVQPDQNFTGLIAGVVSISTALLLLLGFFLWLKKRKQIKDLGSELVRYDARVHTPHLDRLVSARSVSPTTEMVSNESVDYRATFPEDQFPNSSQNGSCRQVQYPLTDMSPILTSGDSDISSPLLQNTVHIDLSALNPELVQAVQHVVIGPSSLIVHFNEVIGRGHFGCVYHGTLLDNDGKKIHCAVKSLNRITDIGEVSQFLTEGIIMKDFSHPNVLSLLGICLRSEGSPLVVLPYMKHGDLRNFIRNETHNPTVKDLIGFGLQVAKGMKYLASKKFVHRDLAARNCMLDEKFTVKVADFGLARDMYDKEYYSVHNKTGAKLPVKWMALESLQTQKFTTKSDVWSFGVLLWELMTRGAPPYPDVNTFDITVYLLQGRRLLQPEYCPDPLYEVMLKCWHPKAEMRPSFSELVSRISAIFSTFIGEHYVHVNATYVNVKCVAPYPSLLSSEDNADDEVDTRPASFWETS
Procedure: All kinase assays were performed in 96-well plates in a 50 µL reaction volume. The kinase buffer contains 50 mM HEPES, pH 7.5, 10 mM MgCl2, 0.0015% Brij-35 and 2 mM DTT. The stop buffer contains 100 mM HEPES, pH 7.5, 0.015% Brij-35, 0.2% Coating Reagent 3 and 50 mM EDTA. Dilute the compounds to 500 µM by 100% DMSO, then transfer 10 µL of compound to a new 96-well plate as the intermediate plate, add 90 µL kinase buffer to each well. Transfer 5 µL of each well of the intermediate plate to 384-well plates. The following amounts of enzyme and substrate were used per well: kinase base buffer, FAM-labeled peptide, ATP and enzyme solution. Wells containing the substrate, enzyme, DMSO without compound were used as DMSO control. Wells containing just the substrate without enzyme were used as low control. Incubate at room temperature for 10 min. Add 10 µL peptide solution to each well. […] At last collect data on Caliper program and convert conversion values to inhibition values. Percent inhibition = (max − conversion)/(max − min) × 100. ‘max’ stands for DMSO control; ‘min’ stands for low control [20].

| SMILES | melting point | IC50 (c-Met kinase) | IC50 (A549 cells) | IC50 (HepG2 cells) | IC50 (MCF-7 cells) |
| --- | --- | --- | --- | --- | --- |
| COc1cc2c(Oc3ccc(NC(=O)c4nn(-c5ccc(F)cc5)ccc4=O)cc3F)ccnc2cc1OCCCN1CCOCC1 [Compound 22] | 152.3 to 153.5 °C | 47 nM | 250 ± 10 nM | 2230 ± 350 nM | 210 ± 20 nM |
| COc1cc2c(Oc3ccc(NC(=O)c4nn(-c5ccc(Cl)cc5)ccc4=O)cc3F)ccnc2cc1OCCCN1CCOCC1 [Compound 23, 1-(4-Chlorophenyl)-N-(3-fluoro-4-((6-methoxy-7-(3-morpholinopropoxy)quinolin-4-yl)oxy)phenyl)-4-oxo-1,4-dihydropyridazine-3-carboxamide] | 138.2 to 139.1 °C | > 500 nM | > 50000 nM | > 50000 nM | > 50000 nM |
| COc1cc2c(Oc3ccc(NC(=O)c4nn(-c5ccc(Br)cc5)ccc4=O)cc3F)ccnc2cc1OCCCN1CCOCC1 [Compound 24, 1-(4-Bromophenyl)-N-(3-fluoro-4-((6-methoxy-7-(3-morpholinopropoxy)quinolin-4-yl)oxy)phenyl)-4-oxo-1,4-dihydropyridazine-3-carboxamide] | 125.7 to 127.1 °C | > 500 nM | > 50000 nM | > 50000 nM | > 50000 nM |
| COc1ccc(-n2ccc(=O)c(C(=O)Nc3ccc(Oc4ccnc5cc(OCCCN6CCOCC6)c(OC)cc45)c(F)c3)n2)cc1 [Compound 25, N-(3-Fluoro-4-((6-methoxy-7-(3-morpholinopropoxy)quinolin-4-yl)oxy)phenyl)-1-(4-methoxyphenyl)-4-oxo-1,4-dihydropyridazine-3-carboxamide] | 153.8 to 155.2 °C | 233 nM | 4240 ± 620 nM | 6750 ± 820 nM | 27200 ± 1440 nM |
| COc1cc2c(Oc3ccc(NC(=O)c4nn(-c5ccc(F)c(Cl)c5)ccc4=O)cc3F)ccnc2cc1OCCCN1CCOCC1 [Compound 26, 1-(3-Chloro-4-fluorophenyl)-N-(3-fluoro-4-((6-methoxy-7-(3-morpholinopropoxy)quinolin-4-yl)oxy)phenyl)-4-oxo-1,4-dihydropyridazine-3-carboxamide] | 138.1 to 140.6 °C | 352 nM | 3700 ± 570 nM | > 50000 nM | 5960 ± 770 nM |
| COc1cc2c(Oc3ccc(NC(=O)c4nn(-c5ccc(Br)cc5F)ccc4=O)cc3F)ccnc2cc1OCCCN1CCOCC1 [Compound 27, 1-(4-Bromo-2-fluorophenyl)-N-(3-fluoro-4-((6-methoxy-7-(3-morpholinopropoxy)quinolin-4-yl)oxy)phenyl)-4-oxo-1,4-dihydropyridazine-3-carboxamide] | 113.7 to 115.1 °C | 478 nM | > 50000 nM | > 50000 nM | > 50000 nM |
| COc1cc2c(Oc3ccc(NC(=O)c4nn(-c5ccc(Cl)c(C(F)(F)F)c5)ccc4=O)cc3F)ccnc2cc1OCCCN1CCOCC1 [Compound 28, 1-(4-Chloro-3-(trifluoromethyl)phenyl)-N-(3-fluoro-4-((6-methoxy-7-(3-morpholinopropoxy)quinolin-4-yl)oxy)phenyl)-4-oxo-1,4-dihydropyridazine-3-carboxamide] | 203.5 to 204.7 °C | 382 nM | 5250 ± 720 nM | > 50000 nM | 7490 ± 870 nM |
| COc1cc2c(Oc3ccc(NC(=O)c4nn(-c5ccccc5)ccc4=O)cc3F)ccnc2cc1OCCCN1CCOCC1 [Compound 29, N-(3-Fluoro-4-((6-methoxy-7-(3-morpholinopropoxy)quinolin-4-yl)oxy)phenyl)-4-oxo-1-phenyl-1,4-dihydropyridazine-3-carboxamide] | 118.7 to 119.8 °C | 16 nM | 200 ± 20 nM | 2270 ± 360 nM | 30 ± 10 nM |
| COc1cc2c(Oc3ccc(NC(=O)c4nn(-c5ccc(F)cc5)ccc4=O)cc3F)ccnc2cc1OCCCN1CCCCC1 [Compound 30, N-(3-Fluoro-4-((6-methoxy-7-(3-(piperidin-1-yl)propoxy)quinolin-4-yl)oxy)phenyl)-1-(4-fluorophenyl)-4-oxo-1,4-dihydropyridazine-3-carboxamide] | 149.4 to 151.1 °C | 17 nM | 310 ± 10 nM | 990 ± 10 nM | 690 ± 20 nM |
| COc1cc2c(Oc3ccc(NC(=O)c4nn(-c5ccc(Cl)cc5)ccc4=O)cc3F)ccnc2cc1OCCCN1CCCCC1 [Compound 31, 1-(4-Chlorophenyl)-N-(3-fluoro-4-((6-methoxy-7-(3-(piperidin-1-yl)propoxy)quinolin-4-yl)oxy)phenyl)-4-oxo-1,4-dihydropyridazine-3-carboxamide] | 158.2 to 159.6 °C | 78 nM | 570 ± 20 nM | 690 ± 30 nM | 1160 ± 60 nM |
| COc1cc2c(Oc3ccc(NC(=O)c4nn(-c5ccc(Br)cc5)ccc4=O)cc3F)ccnc2cc1OCCCN1CCCCC1 [Compound 32, 1-(4-Bromophenyl)-N-(3-fluoro-4-((6-methoxy-7-(3-(piperidin-1-yl)propoxy)quinolin-4-yl)oxy)phenyl)-4-oxo-1,4-dihydropyridazine-3-carboxamide] | 141.3 to 143.4 °C | 246 nM | 2890 ± 460 nM | 1750 ± 240 nM | 2450 ± 390 nM |
| COc1ccc(-n2ccc(=O)c(C(=O)Nc3ccc(Oc4ccnc5cc(OCCCN6CCCCC6)c(OC)cc45)c(F)c3)n2)cc1 [Compound 33, N-(3-Fluoro-4-((6-methoxy-7-(3-(piperidin-1-yl)propoxy)quinolin-4-yl)oxy)phenyl)-1-(4-methoxyphenyl)-4-oxo-1,4-dihydropyridazine-3-carboxamide] | 105.4 to 106.5 °C | 56 nM | 2780 ± 440 nM | 630 ± 80 nM | 2350 ± 370 nM |
| COc1cc2c(Oc3ccc(NC(=O)C4(C(=O)Nc5ccc(F)cc5)CC4)cc3F)ccnc2cc1OCCCN1CCOCC1 [Foretinib, reference compound] | – | – | – | 840 ± 70 nM | – |

More lines, main results first:

| melting point | IC50 (c-Met kinase) | SMILES | IC50 (A549 cells) | IC50 (HepG2 cells) | IC50 (MCF-7 cells) |
| --- | --- | --- | --- | --- | --- |
| 121.7 to 123.4 °C | 2 nM | COc1cc2c(Oc3ccc(NC(=O)c4nn(-c5ccc(F)c(Cl)c5)ccc4=O)cc3F)ccnc2cc1OCCCN1CCCCC1 [Compound 34, 1-(3-Chloro-4-fluorophenyl)-N-(3-fluoro-4-((6-methoxy-7-(3-(piperidin-1-yl)propoxy)quinolin-4-yl)oxy)phenyl)-4-oxo-1,4-dihydropyridazine-3-carboxamide] | 360 ± 40 nM | 1280 ± 110 nM | 150 ± 40 nM |
| 105.9 to 107.4 °C | 8 nM | COc1cc2c(Oc3ccc(NC(=O)c4nn(-c5ccc(Br)cc5F)ccc4=O)cc3F)ccnc2cc1OCCCN1CCCCC1 [Compound 35, 1-(4-Bromo-2-fluorophenyl)-N-(3-fluoro-4-((6-methoxy-7-(3-(piperidin-1-yl)propoxy)quinolin-4-yl)oxy)phenyl)-4-oxo-1,4-dihydropyridazine-3-carboxamide] | 1360 ± 190 nM | 3100 ± 490 nM | 1190 ± 80 nM |
| 185.7 to 186.6 °C | 11 nM | COc1cc2c(Oc3ccc(NC(=O)c4nn(-c5ccc(Cl)c(C(F)(F)F)c5)ccc4=O)cc3F)ccnc2cc1OCCCN1CCCCC1 [Compound 36, 1-(4-Chloro-3-(trifluoromethyl)phenyl)-N-(3-fluoro-4-((6-methoxy-7-(3-(piperidin-1-yl)propoxy)quinolin-4-yl)oxy)phenyl)-4-oxo-1,4-dihydropyridazine-3-carboxamide] | 790 ± 60 nM | 1800 ± 260 nM | 730 ± 80 nM |
| – | 39 nM | COc1cc2c(Oc3ccc(NC(=O)c4nn(-c5ccc(F)cc5)ccc4=O)cc3F)ccnc2cc1OCCCN1CCN(C)CC1 [Compound 46, N-(3-Fluoro-4-((6-methoxy-7-(3-(4-methylpiperazin-1-yl)propoxy)quinolin-4-yl)oxy)phenyl)-1-(4-fluorophenyl)-4-oxo-1,4-dihydropyridazine-3-carboxamide] | 1640 ± 220 nM | 7510 ± 870 nM | 1660 ± 220 nM |
| – | 2 nM | COc1cc2c(Oc3ccc(NC(=O)c4nn(-c5ccc(F)c(Cl)c5)ccc4=O)cc3F)ccnc2cc1OCCCN1CCN(C)CC1 [Compound 50, 1-(3-Chloro-4-fluorophenyl)-N-(3-fluoro-4-((6-methoxy-7-(3-(4-methylpiperazin-1-yl)propoxy)quinolin-4-yl)oxy)phenyl)-4-oxo-1,4-dihydropyridazine-3-carboxamide] | 20 ± 10 nM | 2460 ± 390 nM | 20 ± 10 nM |
| – | 123 nM | COc1cc2c(Oc3ccc(NC(=O)c4nn(-c5ccc(Br)cc5F)ccc4=O)cc3F)ccnc2cc1OCCCN1CCN(C)CC1 [Compound 51, 1-(4-Bromo-2-fluorophenyl)-N-(3-fluoro-4-((6-methoxy-7-(3-(4-methylpiperazin-1-yl)propoxy)quinolin-4-yl)oxy)phenyl)-4-oxo-1,4-dihydropyridazine-3-carboxamide] | 5630 ± 750 nM | 6390 ± 810 nM | 5430 ± 740 nM |
